± gives the expanded uncertainty stated by the source.
What was measured:
[1] = molar heat capacity at constant pressure; conditions: 100 kPa, Small sample (50 mg) DSC
[2] = 100 kPa; for speed of sound: Frequency=3 MHz, Sing-around technique in a fixed-path interferometer; for mass density: Vibrating tube method
[3] = xn = mol fraction of the nth substance listed; conditions: 100 kPa, Liquid; for speed of sound: Frequency=3 MHz, Sing-around technique in a fixed-path interferometer; for mass density: Vibrating tube method
[4] = molar heat capacity at constant pressure; xn = mol fraction of the nth substance listed; conditions: 100 kPa, Liquid, Small sample (50 mg) DSC

Row | Structure (SMILES) | molar heat capacity at constant pressure ([1]; 293.15 K, Liquid) [J/K/mol] | molar heat capacity at constant pressure ([1]; 298.15 K, Liquid) [J/K/mol] | molar heat capacity at constant pressure ([1]; 303.15 K, Liquid) [J/K/mol] | molar heat capacity at constant pressure ([1]; 308.15 K, Liquid) [J/K/mol] | speed of sound ([2]; 293.15 K, Liquid) [m/s] | mass density ([2]; 293.15 K, Liquid) [kg/m3] | speed of sound ([2]; 298.15 K, Liquid) [m/s] | mass density ([2]; 298.15 K, Liquid) [kg/m3] | speed of sound ([2]; 303.15 K, Liquid) [m/s] | mass density ([2]; 303.15 K, Liquid) [kg/m3] | speed of sound ([2]; 308.15 K, Liquid) [m/s] | mass density ([2]; 308.15 K, Liquid) [kg/m3] | speed of sound ([3]; 293.15 K, x2 = 0) [m/s] | mass density ([3]; 293.15 K, x2 = 0) [kg/m3] | speed of sound ([3]; 298.15 K, x2 = 0) [m/s] | mass density ([3]; 298.15 K, x2 = 0) [kg/m3] | speed of sound ([3]; 303.15 K, x2 = 0) [m/s] | mass density ([3]; 303.15 K, x2 = 0) [kg/m3] | speed of sound ([3]; 308.15 K, x2 = 0) [m/s] | mass density ([3]; 308.15 K, x2 = 0) [kg/m3] | other results
1 | CCCCn1cc[n+](C)c1C.F[B-](F)(F)F [1-butyl-2,3-dimethylimidazolium tetrafluoroborate] |  |  |  |  |  |  |  |  |  |  |  |  |  |  |  |  |  |  |  |  | molar heat capacity at constant pressure ([1]; 293.15 K, Metastable liquid): 413.03 ± 8.8 J/K/mol; molar heat capacity at constant pressure ([1]; 298.15 K, Metastable liquid): 416.01 ± 8.9 J/K/mol; molar heat capacity at constant pressure ([1]; 303.15 K, Metastable liquid): 418.84 ± 8.9 J/K/mol; molar heat capacity at constant pressure ([1]; 308.15 K, Metastable liquid): 421.7 ± 9 J/K/mol; speed of sound ([2]; 293.15 K, Metastable liquid): 1659.7 ± 1.5 m/s; mass density ([2]; 293.15 K, Metastable liquid): 1193.5 ± 2 kg/m3; speed of sound ([2]; 298.15 K, Metastable liquid): 1645.7 ± 1.5 m/s; mass density ([2]; 298.15 K, Metastable liquid): 1191.8 ± 2 kg/m3; speed of sound ([2]; 303.15 K, Metastable liquid): 1632.5 ± 1.5 m/s; mass density ([2]; 303.15 K, Metastable liquid): 1189.7 ± 2 kg/m3; speed of sound ([2]; 308.15 K, Metastable liquid): 1619.8 ± 1.5 m/s; mass density ([2]; 308.15 K, Metastable liquid): 1187.9 ± 2 kg/m3
2 | CCCCn1cc[n+](C)c1.F[B-](F)(F)F [1-butyl-3-methylimidazolium tetrafluoroborate] | 362.35 ± 7.7 | 365.12 ± 7.8 | 367.48 ± 7.8 | 369.88 ± 7.9 | 1578.1 ± 1.7 | 1203.1 ± 2.1 | 1565.5 ± 1.7 | 1198.9 ± 2.1 | 1554.1 ± 1.7 | 1195.3 ± 2.1 | 1542.3 ± 1.7 | 1191.7 ± 2.1 |  |  |  |  |  |  |  |  | 
3 | CCCCn1cc[n+](C)c1.F[B-](F)(F)F [1-butyl-3-methylimidazolium tetrafluoroborate] + CCCCn1cc[n+](C)c1C.F[B-](F)(F)F |  |  |  |  |  |  |  |  |  |  |  |  | 1578.1 ± 1.7 | 1203.1 ± 2.1 | 1565.5 ± 1.7 | 1198.9 ± 2.1 | 1554.1 ± 1.7 | 1195.3 ± 2.1 | 1542.3 ± 1.7 | 1191.7 ± 2.1 | molar heat capacity at constant pressure ([4]; 293.15 K, x2 = 0): 362.35 ± 7.7 J/K/mol; molar heat capacity at constant pressure ([4]; 298.15 K, x2 = 0): 365.12 ± 7.8 J/K/mol; molar heat capacity at constant pressure ([4]; 303.15 K, x2 = 0): 367.48 ± 7.8 J/K/mol; molar heat capacity at constant pressure ([4]; 308.15 K, x2 = 0): 369.88 ± 7.9 J/K/mol
4 | CCCCn1cc[n+](C)c1.F[B-](F)(F)F [1-butyl-3-methylimidazolium tetrafluoroborate] + CCn1cc[n+](C)c1.F[B-](F)(F)F |  |  |  |  |  |  |  |  |  |  |  |  |  |  |  |  |  |  |  |  | speed of sound ([3]; 293.15 K, x1 = 1): 1578.1 ± 1.7 m/s; mass density ([3]; 293.15 K, x1 = 1): 1203.1 ± 2.1 kg/m3; speed of sound ([3]; 298.15 K, x1 = 1): 1565.5 ± 1.7 m/s; mass density ([3]; 298.15 K, x1 = 1): 1198.9 ± 2.1 kg/m3; speed of sound ([3]; 303.15 K, x1 = 1): 1554.1 ± 1.7 m/s; mass density ([3]; 303.15 K, x1 = 1): 1195.3 ± 2.1 kg/m3; speed of sound ([3]; 308.15 K, x1 = 1): 1542.3 ± 1.7 m/s; mass density ([3]; 308.15 K, x1 = 1): 1191.7 ± 2.1 kg/m3; molar heat capacity at constant pressure ([4]; 293.15 K, x1 = 1): 362.35 ± 7.7 J/K/mol; molar heat capacity at constant pressure ([4]; 298.15 K, x1 = 1): 365.12 ± 7.8 J/K/mol; molar heat capacity at constant pressure ([4]; 303.15 K, x1 = 1): 367.48 ± 7.8 J/K/mol; molar heat capacity at constant pressure ([4]; 308.15 K, x1 = 1): 369.88 ± 7.9 J/K/mol
5 | CCn1cc[n+](C)c1.F[B-](F)(F)F [1-ethyl-3-methylimidazolium tetrafluoroborate] | 303.2 ± 6.5 | 304.53 ± 6.5 | 306.29 ± 6.5 | 308.03 ± 6.6 | 1631.1 ± 1.6 | 1283.9 ± 2 | 1619.2 ± 1.6 | 1279.9 ± 2 | 1607.4 ± 1.6 | 1276.3 ± 2 | 1596.2 ± 1.6 | 1272.1 ± 2 |  |  |  |  |  |  |  |  | 
6 | CCn1cc[n+](C)c1.F[B-](F)(F)F [1-ethyl-3-methylimidazolium tetrafluoroborate] + CCCCn1cc[n+](C)c1C.F[B-](F)(F)F |  |  |  |  |  |  |  |  |  |  |  |  | 1631.1 ± 1.6 | 1283.9 ± 2 | 1619.2 ± 1.6 | 1279.9 ± 2 | 1607.4 ± 1.6 | 1276.3 ± 2 | 1596.2 ± 1.6 | 1272.1 ± 2 | molar heat capacity at constant pressure ([4]; 293.15 K, x2 = 0): 303.2 ± 6.5 J/K/mol; molar heat capacity at constant pressure ([4]; 298.15 K, x2 = 0): 304.53 ± 6.5 J/K/mol; molar heat capacity at constant pressure ([4]; 303.15 K, x2 = 0): 306.29 ± 6.5 J/K/mol; molar heat capacity at constant pressure ([4]; 308.15 K, x2 = 0): 308.03 ± 6.6 J/K/mol
